Results as given in patent US11679100B2, “Methods of enhancing immunity” (The Regents of the University of California, priority 2018, dated 2023).

What was measured:
CD11b = biological target: T1, CD11b (Homo sapiens, UniProt P11215); assay: Cell adhesion assay on ICAM-1 coated substrates; type: cell-based; conditions: LA1 20 μM
T1 construct: Human CD14+ monocytes were isolated from the PBMCs; endogenous in cells; host or cells: primary human CD14+ monocytes from whole-blood PBMCs
Procedure: Cell Adhesion Assay— PBMCs were extracted from human whole blood using the vendor instructions for Sep Mate-50 tubes (#15450, Stem Cell). Human CD14+ monocytes were isolated from the PBMCs using the vendor instructions for the EasySep™ Human Monocyte Isolation Kit (Catalog #19359, Stem Cell). Briefly, 384-well plates (#3700, Corning) were coated with recombinant human ICAM1 (750 ng/mL, #720-IC, R&D Systems), or M1/70 (10 ug/mL, #101202, Biolegend) or IB4 (10 μg/mL, #167-020, Ancell) overnight at 4° C. Wells were blocked with 1% milk dissolved in TBS for 1 hr at room temperature. All wells received Ca^2+/Mg^2+ ions (1 mM each physiological concentration, baseline control) except for the positive control wells that received 1 mM Mn^2+ ions. A stock solution of LA1 agonist was prepared by dissolving the compound in DMSO at a concentration of 2 mM and final dilution of LA1 in wells was 20 μM. The final concentration of DMSO in all wells was 1%. 45,000 human monocytes were seeded in each well. Some wells received human monocytes cells that were pre-blocked with anti-human CD11b (M1/70) for 15 min at 4° C. The plates were incubated at 37° C. for 30 min followed by 30 min of inversion at room temperature to remove non-adherent cells. Cells were fixed, stained with DAPI and counted using the Opera High Content Screening System (Perkin Elmer). Assays were performed in six replicate wells.

[1] = test system: human MDA-MB-231 mammary xenograft tumors; assay: Orthotopic MDA-MB-231 mammary xenograft model; type: in vivo, mice
Procedure: Alternatively, 5 million MDA-MB 231 human breast cancer cells were injected orthotopically in the 4th mammary fat pad of 6-week old female nude mice. The tumors were allowed to establish for 35 days (at least 0.5 cm in diameter) and the tumor bearing mice were divided into three treatment groups including, vehicle, LA1 only (i.p.; 2.0 mg/kg; daily) and Taxol only (i.p.; 2.5 mg/kg every other day). Treatment was initiated on day 35 and continued until the end-point at day 58 post-tumor when all the mice were sacrificed and tumor tissue was harvested for histological analysis. Palpable tumors were measured using digital calipers 3 times weekly during the entire experiment to develop tumor growth curves.

CL66-Luc breast tumors = assay: Orthotopic CL66-Luc breast tumor model; type: in vivo, Balb/cJ mice
Procedure: Tumor Studies—Subcutaneous tumor studies: 5×10^5 LLC or B16 cells were injected subcutaneously into syngeneic (C57BL/6) 6- to 8-week old WT or Itgam^−/− mice (n=18). Tumors were excised at 7, 14 or 21 days, cryopreserved in OCT, lysed for RNA purification or collagenase-digested for flow cytometric analysis of CD11b+, F4/80+ and Gr1+ expression. Tumor volumes were calculated using the equation (l^2×w)/2. CL66-luc cells (0.5×10^6 cells) were suspended in 50 μL of basement membrane extract Matrigel (BD Pharmingen) in PBS (1:1) and inoculated orthotopically in the fourth mammary fat pad of female Balb/cJ mice. Tumor dimensions were measured every 2 days, and tumor volume was calculated using the equation: V (mm^3)=[…], where length is the longest diameter of the tumor and width is the shorter diameter.
Mice were divided into four cohorts: vehicle control treated, LA1 only treated, Taxol only treated, LA1 and Taxol treated. LA1 (2 mg/kg) was dissolved in 2% DMSO and 1% Tween-20 in saline and Taxol (2.5 mg/kg) was dissolved in a 1:1:6 ratio of Cremophor EL: Ethanol:Saline. LA1 was administered by intraperitoneal injection (i.p.) daily, while Taxol was administered every other day by i.p. injection until end-point. LA1+Taxol treated mice received LA1 i.p. in the morning followed by Taxol i.p. within 4 hours. Tumor burden was evaluated every other day by caliper measurements. Prior to tissue collection, mice were anesthetized by ketamine/xylazine and the lungs were perfused with PBS followed by 10% formalin and harvested for fixation. Mammary tumor tissue was harvested and divided for fixation (10% formalin or OCT), snap frozen, or made into single-cell suspensions and analyzed by flow cytometric analysis. For survival studies, Balb/c mice bearing CL66-derived tumors were treated for 6 weeks after the first treatment and monitored thereafter. End point was considered when the tumor reached […] in diameter (n=10-15).
Immunohistochemistry—Tumor samples were collected and cryopreserved in O.C.T. Sections (5 μm) were fixed in 100% cold acetone, blocked with 8% normal goat serum for 2 hours, and incubated with primary antibodies at […] for 2 hours at room temperature. Sections were washed 3 times with PBS and incubated with fluorescent secondary antibodies. Primary antibodies where: F4/80 (BM8, eBioscience), CD4 (H129.19, BD Bioscience), CD8 (53-6.7, BD Bioscience), CD31 (MEC13.1, BD Bioscience), desmin (RB0914-P1, LabVision, Thermo Scientific), and anti-smooth muscle actin (SMA) (1A4, Sigma-Aldrich). Slides were counterstained with 4′,6-diamidino-2-phenylindole (DAPI) to identify nuclei. Immunofluorescence images were collected on a Nikon microscope (Eclipse TE2000-U) and analyzed using Metamorph image capture and analysis software (Version 6.3r5, Molecular Devices). Pixels/field or cell number/field were quantified in five 100× fields from 5 biological replicates. For LA1 studies, immunohistochemical staining was quantified by counting marker positive cells in 3 different areas analyzed at 40× using a light microscope for each tumor tissue (n=4−6). Tissues that were stained with fluorochrome conjugated secondary antibodies were counter stained with DAPI and analyzed using the Zeiss 700 LSM confocal microscope and Zen software (Carl Zeiss Group, Hartford, Conn.).
Alternatively, immunostaining was performed on formalin fixed, paraffin-embedded tumor tissues. Deparaffinized tissue sections (5 μm) were either stained with hemotoxylin-eosin or were subjected to antigen retrieval by steam heating in an acidic pH solution (Citrate-based, Vector Laboratories) prior to immune staining for α-SMA (clone 1A4, Fisher Scientific), MMP9 (polyclonal rabbit, Abcam), S100A8 (goat polyclonal (M-19), Santa Cruz), CD31 (clone RM0032-1D12, Abcam), or ARG1 (sc-18351, Santa Cruz) at 4° C. overnight. […]

SMILES: O=C(O)c1ccc(-c2ccc(/C=C3\SC(=S)N(Cc4ccccc4)C3=O)o2)cc1 [LA1, leukadherin 1]
- myeloid cell adhesion to ICAM-1 coated substrates (CD11b): stimulated myeloid cell adhesion to ICAM-1 coated substrates
- MDA-MB-231 xenograft tumor growth ([1]; LA1 2.0 mg/kg i.p. daily): suppressed the growth of orthotopic, human MDA-MB-231 mammary xenograft tumors
- MDA-MB-231 tumor growth relative to control treated animals ([1]; mice which lack T cells): 50%
- CD8+ T cells in tumors (CL66-Luc breast tumors; CL66-Luc tumors): increased the presence of CD8+ T cells
- MHCII+ macrophages in tumors (CL66-Luc breast tumors; CL66-Luc tumors): increased the presence of MHCII+ macrophages
- expression of Arginase1, S100A8 and MMP9 in tumors (CL66-Luc breast tumors; CL66-Luc tumors): inhibited expression of Arginase1, S100A8 and MMP9 in CL66-Luc tumors
- MHCII, CD206, Arg1, MMP9 and S100A8 expression in TAMs (CL66-Luc breast tumors; CL66 Luc model): stimulating MHCII expression and reducing CD206, Arg1, MMP9 and S100A8 expression in TAMs
- CL66-Luc tumor growth, combination with irradiation (CL66-Luc breast tumors; LA1 2 mg/kg + IR 20 Gy): synergized with irradiation to suppress CL66-Luc breast tumor growth
- CL66-Luc tumor growth (CL66-Luc breast tumors; LA1 2 mg/kg i.p. daily, compared with taxol): potently reduced tumor growth in syngeneic, orthotopically implanted CL66-Luc breast tumors more effectively than taxol
- survival (CL66-Luc breast tumors; mouse models of cancer): prolong survival in mouse models of cancer
- CL66 Luc tumor growth relative to control tumors (CL66-Luc breast tumors; syngeneic, immune competent mice): 25%
